Assay results from patent US9132179B2, “Compositions for reducing bacterial carriage and CNS invasion and methods of using same” (The UAB Research Foundation, priority 2003, dated 2015).
pIC50: −log10 of the molar value.

Assays:
[1] = test system: TIGR4 strain; experiment: Attachment of TIGR4 strain to ganglioside-coated ELISA plates, short-term incubation; type: binding, S. pneumoniae
Protocol: The ability of the TIGR4, and its nanA and nanB mutants to bind to specific gangliosides is measured. The gangliosides used include mixed gangliosides, asialo-GM1, GM1, GD1a, GD1b, GT1 (Calbiochem) and the GM3 ganglioside (Sigma). The GM3 ganglioside lacks the terminal or internal GalNAcβ1-4Gal sequence involved in pneumococcal binding and is used as a negative control. These mixed, mono-, di- or tri-sialic acid containing gangliosides bind readily to ELISA plates. […] Using ganglioside-coated plates, the ability to attach to these plates by wildtype TIGR4 strain, the stable opaque and transparent phase variants of the TIGR4 strain, the nanA, nanB, and nanA/nanB mutant strains is compared. These analyses include short-term incubation (1 hr) and extended incubations (24 hrs) on ganglioside-coated plates. Attached pneumococci are removed from the ganglioside plates by short incubation (10-15 min.) in Todd Hewitt medium containing 0.5% yeast extract followed by repeated pipetting and plating the released bacteria on blood agar plates. Alternatively 41° C. Todd Hewitt broth agar containing 0.5% yeast extract is poured on top of the attached pneumococci and the colonies are counted through the bottom of the plate. Controls include plates with no pneumococci and plates with no gangliosides but with pneumococci.

[2] = test system: S. pneumoniae strain EF3030; experiment: GLS preincubation of S. pneumoniae strain EF3030 before nasal application; CFU in tissues; type: in vivo; details: EF3030 preincubated with GLS, xid mice, four days after nasal application
Protocol: Aliquots (3×10^7 CFUs) of S. pneumoniae were incubated for 30 minutes with 20 μg asialo-GM1 (a-GM1) or 125 μg of mixed GLSs (MG) prior to nasal application. The ON/E, OBs, brain and NW, NALT and lungs were collected four days later and analyzed for numbers of S. pneumoniae. The 0 value on the Y-axis represents the absence of detectable CFUs. Indicated are the mean+one SE of 5 mice and the P-values were obtained following statistical analysis. The data are representative of two separate experiments.
The blood was collected into a heparinized capillary tube from the retroorbital plexus. Mice were disinfected with 70% ethanol prior to collection of nasal wash (NW), kidney, spleen, and lungs. […]
Eight serial, three-fold dilutions were made of tissues and body fluids in sterile Ringer's solution and plated on blood agar plates containing 4 μg/ml of gentamicin sulfate. […] The results were expressed as CFUs/organ, per NW or per ml of blood.
To block GLS binding sites, 3×10^7 CFU of S. pneumoniae strain EF3030 were incubated for 30 min on ice with either 20 μg asialo-GM1 from human brain or 125 μg of mixed GLSs (18% GM1, 55% GD1a, 15% GD1b, 10% GT1b, 2% other GLSs) from bovine brain (Calbiochem-Novabiochem Corporation, Inc., La Jolla, Calif.). […] Tissues were analyzed for CFUs four days later.

[3] = GM1-binding peptide; cited from earlier work

| Substance | binding of pneumococci to coated plates [1] | reduction of colonization in CNS ([2]; CNS tissue) [fold] | reduction of colonization in lungs ([2]; lungs) [fold] | pIC50 [3] |
| --- | --- | --- | --- | --- |
| GM1 | not | – | – | – |
| asialo-GM1 | bind and attachment | 25 | 63 | – |
| VWRLLAPPFSNRLLP | – | – | – | 6.00 |
| GM3 [GM-3] | not | – | – | – |
